“And” between values parts separate entries of the source, which are not always exact repeats. Equal entries are not always repeated. Where a SMILES comes first, the peptide text is derived from it. [ ]: non-standard residue; d: D form. Hyp = O=C(O)[C@@H]1C[C@@H](O)CN1
Experiments:
CCL3/MIP-1 alpha = assay: Example 9 Luminex, LPS hPBMCs: CCL3/MIP-1 alpha; format: cell-based, human
Experimental: (§1) Treatment Human PBMCs were pretreated with YY-101, YDE-011 and YDE-043 or reference compound; Xiidra® at various concentration (ranging from 1 nM to 100 uM) for 2 h before stimulation. An equal volume of 0.5% DMSO was used as a vehicle control. Then, the cells were treated with LPS at 5 ug/ml. The supernatants from treated cells were harvested at 24 h and placed in a 96 well for Luminex cytokine & chemokine profiling using a Luminex 200 multiplex assay (Luminex; R&D system, USA).
(§2) The main study arm with triplicate wells per group in a 24-well plate: • 1. Blank • 2. PBMC: 0.5% DMSO • 3. PBMC+LPS (5 ug/ml) • 4. PBMC+YY-101 100 uM • 5. PBMC+YY-101 10 uM • 6. PBMC+YY-101 1 uM • 7. PBMC+YY-101 0.1 uM • 8. PBMC+YY-101 0.01 uM • 9. PBMC+LPS (5 ug/ml)+Xiidra®100 uM • 10. PBMC+LPS (5 ug/ml)+Xiidra® 10 uM • 11. PBMC+LPS (5 ug/ml)+Xiidra® 1 uM • 12. PBMC+LPS (5 ug/ml)+Xiidra®0.1 uM • 13. PBMC+LPS (5 ug/ml)+Xiidra®0.01 uM • 14. PBMC+LPS (5 ug/ml)+Xiidra®0.001 uM • 15. PBMC+LPS (5 ug/ml)+YY-101 100 uM • 16. PBMC+LPS (5 ug/ml)+YY-101 10 uM • 17. PBMC+LPS (5 ug/ml)+YY-101 1 uM • 18. PBMC+LPS (5 ug/ml)+YY-101 0.1 uM • 19. PBMC+LPS (5 ug/ml)+YY-101 0.01 uM • 20. PBMC+LPS (5 ug/ml)+YY-101 0.001 uM • 21. PBMC+LPS (5 ug/ml)+YDE-011 100 uM • 22. PBMC+LPS (5 ug/ml)+YDE-011 10 uM • 23. PBMC+LPS (5 ug/ml)+YDE-011 1 uM • 24. PBMC+LPS (5 ug/ml)+YDE-011 0.1 uM • 25. PBMC+LPS (5 ug/ml)+YDE-011 0.01 uM • 26. PBMC+LPS (5 ug/ml)+YDE-011 0.001 uM • 27. PBMC+LPS (5 ug/ml)+YDE-043 100 uM • 28. PBMC+LPS (5 ug/ml)+YDE-043 10 uM • 29. PBMC+LPS (5 ug/ml)+YDE-043 1 uM • 30. PBMC+LPS (5 ug/ml)+YDE-043 0.1 uM • 31. PBMC+LPS (5 ug/ml)+YDE-043 0.01 uM • 32. PBMC+LPS (5 ug/ml)+YDE-043 0.001 uM
(§3) Multiplex assay was used to measure 30 cytokines and chemokines. The 1:2, 1:10 and 1:200 diluted cell supernatant and serial dilution of the standard were dispensed into a 96 well plate at 50 ul/well. Then, the pre-mixed cocktail of antibody-coated magnetic beads was dispensed at 50 ul/well and incubated at room temperature for 2 h in a horizontal orbital microplate shaker at 800±500 rpm. The beads were washed using a magnetic device to prevent loss. The biotin-antibody was dispensed in 50 ul of each well and incubated at room temperature for 1 h in a shaker at 800±500 rpm. After washing, streptavidin-PE was added at 50 ul/well and incubated at room temperature for 30 min in a shaker under the same conditions. Finally, after washing, wash buffer (100 ul/well) was added to the plate and incubated in a shaker for 2 min. The Luminex™ 200 setting were set according to the manufacturer's protocol. The data was calculated with a standard five-parameter logistic nonlinear regression analysis of the data (xPonent software 4.2, USA). The levels of cytokine/chemokine are normalized to the live cell counts (1×10^5 cells/mL) and presented as concentrations per mL (pg/mL or ng/mL).

CCL4/MIP-1 beta = assay: Example 9 Luminex, LPS hPBMCs: CCL4/MIP-1 beta; format: cell-based, human; details: PBMC + LPS(5 ug/ml); for MFI (Bead name: CCL4/MIP-1 beta): dilution 10
Experimental: as §1, §2, §3

[1] = PBMC + LPS(5 ug/ml) + test article 0.001 uM, Mean
[2] = PBMC + LPS(5 ug/ml) + test article 0.001 uM, individual replicates
[3] = PBMC + LPS(5 ug/ml) + test article 0.01 uM, Mean
[4] = PBMC + LPS(5 ug/ml) + test article 0.01 uM, individual replicates
[5] = PBMC + LPS(5 ug/ml) + test article 0.1 uM, Mean
[6] = PBMC + LPS(5 ug/ml) + test article 0.1 uM, individual replicates
[7] = PBMC + LPS(5 ug/ml) + test article 1 uM, Mean
[8] = PBMC + LPS(5 ug/ml) + test article 1 uM, individual replicates
[9] = PBMC + LPS(5 ug/ml) + test article 10 uM, Mean
[10] = PBMC + LPS(5 ug/ml) + test article 10 uM, individual replicates
[11] = PBMC + LPS(5 ug/ml) + test article 100 uM, Mean
[12] = PBMC + LPS(5 ug/ml) + test article 100 uM, individual replicates
[13] = test article 0.001 uM, single replicates
[14] = test article 0.01 uM, single replicates
[15] = test article 0.1 uM, single replicates
[16] = test article 1 uM, single replicates
[17] = test article 10 uM, single replicates
[18] = test article 100 uM, single replicates

## CC(C)C[C@H](NC(=O)CNC(=O)[C@H](CC(C)C)NC(=O)[C@H](CCC(N)=O)NC(=O)CNC(=O)[C@@H]1C[C@@H](O)CN1)C(=O)N[C@@H](C)C(=O)NCC(=O)N1CCC[C@H]1C(=O)N[C@@H](CCCCN)C(=O)O [YDE-011] (H-[Hyp]GQLGLAGPK-OH)
CCL3/MIP-1 alpha; [1]
  Concentration: 7478.7 pg/mL
  conc/live cell: 1414.4 pg/10^5
CCL3/MIP-1 alpha; [2]
  Concentration: 7525.9 pg/mL and 7321.9 pg/mL and 7588.4 pg/mL
  conc/live cell: 1672.4 pg/10^5 and 1262.4 pg/10^5 and 1308.3 pg/10^5
CCL3/MIP-1 alpha; [3]
  Concentration: 7584.1 pg/mL
  conc/live cell: 1304.0 pg/10^5
CCL3/MIP-1 alpha; [4]
  Concentration: 7600.8 pg/mL and 7525.9 pg/mL and 7625.5 pg/mL
  conc/live cell: 1225.9 pg/10^5 and 1475.7 pg/10^5 and 1210.4 pg/10^5
CCL3/MIP-1 alpha; [5]
  Concentration: 7103.9 pg/mL
  conc/live cell: 1250.7 pg/10^5
CCL3/MIP-1 alpha; [6]
  Concentration: 6974.8 pg/mL and 7334.8 pg/mL and 7002.2 pg/mL
  conc/live cell: 1056.8 pg/10^5 and 1467.0 pg/10^5 and 1228.5 pg/10^5
CCL3/MIP-1 alpha; [7]
  Concentration: 7537.7 pg/mL
  conc/live cell: 1505.0 pg/10^5
CCL3/MIP-1 alpha; [8]
  Concentration: 7399.2 pg/mL and 7613.2 pg/mL and 7600.8 pg/mL
  conc/live cell: 1345.3 pg/10^5 and 1586.1 pg/10^5 and 1583.5 pg/10^5
CCL3/MIP-1 alpha; [9]
  Concentration: 7734.7 pg/mL
  conc/live cell: 1473.3 pg/10^5
CCL3/MIP-1 alpha; [10]
  Concentration: 7962.5 pg/mL and 7373.5 pg/mL and 7868.0 pg/mL
  conc/live cell: 1474.5 pg/10^5 and 1271.3 pg/10^5 and 1674.0 pg/10^5
CCL3/MIP-1 alpha; [11]
  Concentration: 7968.8 pg/mL
  conc/live cell: 1313.3 pg/10^5
CCL3/MIP-1 alpha; [12]
  Concentration: 8238.4 pg/mL and 8067.3 pg/mL and 7600.8 pg/mL
  conc/live cell: 1350.6 pg/10^5 and 1322.5 pg/10^5 and 1266.8 pg/10^5
CCL4/MIP-1 beta; test article 0.001 uM, Mean
  Concentration (CCL4/MIP-1 beta): 7251.7 pg/mL
  conc/live cell (CCL4/MIP-1 beta): 1370.9 pg/10^5
  MFI (Bead name: CCL4/MIP-1 beta): 157.3
CCL4/MIP-1 beta; [13]
  MFI (Bead name: CCL4/MIP-1 beta): 158.0 (2×) and 156.0
  Concentration (CCL4/MIP-1 beta): 7267.3 pg/ml (2×) and 7220.3 pg/ml
  conc/live cell (CCL4/MIP-1 beta): 1615.0 pg/10^5 and 1244.9 pg/10^5 and 1253.0 pg/10^5
CCL4/MIP-1 beta; test article 0.01 uM, Mean
  Concentration (CCL4/MIP-1 beta): 7395.1 pg/mL
  conc/live cell (CCL4/MIP-1 beta): 1270.9 pg/10^5
  MFI (Bead name: CCL4/MIP-1 beta): 163.5
CCL4/MIP-1 beta; [14]
  MFI (Bead name: CCL4/MIP-1 beta): 164.0 and 159.0 and 167.5
  Concentration (CCL4/MIP-1 beta): 7407.0 pg/mL and 7290.8 pg/mL and 7487.6 pg/mL
  conc/live cell (CCL4/MIP-1 beta): 1194.7 pg/10^5 and 1429.6 pg/10^5 and 1188.5 pg/10^5
CCL4/MIP-1 beta; test article 0.1 uM, Mean
  Concentration (CCL4/MIP-1 beta): 7029.3 pg/mL
  conc/live cell (CCL4/MIP-1 beta): 1234.5 pg/10^5
  MFI (Bead name: CCL4/MIP-1 beta): 148.0
CCL4/MIP-1 beta; [15]
  MFI (Bead name: CCL4/MIP-1 beta): 152.0 and 151.0 and 141.0
  Concentration (CCL4/MIP-1 beta): 7125.7 pg/mL and 7101.9 pg/mL and 6860.2 pg/mL
  conc/live cell (CCL4/MIP-1 beta): 1079.6 pg/10^5 and 1420.4 pg/10^5 and 1203.6 pg/10^5
CCL4/MIP-1 beta; test article 1 uM, Mean
  Concentration (CCL4/MIP-1 beta): 7165.0 pg/mL
  conc/live cell (CCL4/MIP-1 beta): 1429.9 pg/10^5
  MFI (Bead name: CCL4/MIP-1 beta): 153.7
CCL4/MIP-1 beta; [16]
  MFI (Bead name: CCL4/MIP-1 beta): 151.0 and 152.0 and 158.0
  Concentration (CCL4/MIP-1 beta): 7101.9 pg/mL and 7125.7 pg/mL and 7267.3 pg/mL
  conc/live cell (CCL4/MIP-1 beta): 1291.2 pg/10^5 and 1484.5 pg/10^5 and 1514.0 pg/10^5
CCL4/MIP-1 beta; test article 10 uM, Mean
  Concentration (CCL4/MIP-1 beta): 7321.1 pg/mL
  conc/live cell (CCL4/MIP-1 beta): 1392.8 pg/10^5
  MFI (Bead name: CCL4/MIP-1 beta): 160.3
CCL4/MIP-1 beta; [17]
  MFI (Bead name: CCL4/MIP-1 beta): 166.0 and 153.5 and 161.5
  Concentration (CCL4/MIP-1 beta): 7453.1 pg/mL and 7161.3 pg/mL and 7349.0 pg/mL
  conc/live cell (CCL4/MIP-1 beta): 1380.2 pg/10^5 and 1234.7 pg/10^5 and 1563.6 pg/10^5
CCL4/MIP-1 beta; test article 100 uM, Mean
  Concentration (CCL4/MIP-1 beta): 6290.1 pg/mL
  conc/live cell (CCL4/MIP-1 beta): 1036.8 pg/10^5
  MFI (Bead name: CCL4/MIP-1 beta): 118.5
CCL4/MIP-1 beta; [18]
  MFI (Bead name: CCL4/MIP-1 beta): 119.0 and 121.5 and 115.0
  Concentration (CCL4/MIP-1 beta): 6303.5 pg/mL and 6368.7 pg/mL and 6197.9 pg/mL
  conc/live cell (CCL4/MIP-1 beta): 1033.4 pg/10^5 and 1044.1 pg/10^5 and 1033.0 pg/10^5

— US20230146455A1, “TREATMENT OF INFLAMMATORY DISEASES WITH PEPTIDES AND PHARMACEUTICAL COMPOSITIONS” (Yuyu Pharma, Inc., priority 2020, published 2023)
